Data: patent US20060235035A1, “Novel methoxybenzamibe compounds for use in mch receptor related disorders” (7TM Pharma A/S, priority 2002, published 2006)
pIC50: −log10 of the molar value.

What was measured:
human MCH-1 receptor [1] = molecular target: T1, human MCH-1 receptor (Homo sapiens, UniProt Q99705); test: Radioligand binding assay ([125I]-MCH competition, whole cells); conditions: competition with [125I]-MCH; COS-7 or CHO cells expressing human MCH-1 receptor
T1 construct: expressed in transfected cells; host or cells: transiently transfected COS-7 cells or stably transfected CHO cells (pcDNA3.1)
Protocol: Transfections and Tissue Culture—The cDNA encoding the human MCH-1 receptor was cloned from a human brain cDNA library and cloned into the eukaryotic expression vector pcDNA3.1 (Invitrogen). Assays were performed on transiently transfected COS-7 cells or stably transfected CHO (Chinese Hamster Ovary) cells, expressing the human MCH-1 receptor in pcDNA3.1. Stable MCH-1 receptor transfectants of CHO cells were obtained using 5 μg plasmid cDNA and a standard calcium phosphate transfection method (Johansen et al., 1990; Gether et al., 1992) with subsequent selection in 1 mg/ml G418 (Life Technology). Clones were screened by a MCH receptor radioligand binding assay (as described below). Stably transfected CHO cells were maintained in RPMI 1640 culture medium (Invitrogen), supplemented with 10% fetal calf serum (Invitrogen), 100 U/ml penicillin, 100 μg/ml streptomycin (Life Technology), and 500 μg/ml G418 (Life Technology). COS-7 cells were grown in Dulbecco's modified Eagle's medium (DMEM) 1885 (Invitrogen) supplemented with 10% fetal calf serum, 100 U/ml penicillin, 100 μg/ml streptomycin, and were transiently transfected by a standard calcium phosphate transfection method (Johansen et al., 1990; Gether et al., 1992) two days before assay.
Radioligand Binding Assay—Transiently transfected COS-7 cells or stably transfected CHO cells, expressing human MCH-1 receptor were seeded in multi-well culture plates one day before the assay. The number of cells per well was determined by the apparent expression efficiency of the cell line aiming at 5-10% binding of the added radioligand. Cells were assayed by competition binding for 3 hours at room temperature using […] [^125I]-MCH (Amersham Pharmacia Biotech) plus variable amounts of unlabeled ligand in 0.5 ml of a 25 mM Hepes buffer, pH 7.4, supplemented with 10 mM MgCl2, 5 mM MnCl2, 10 mM NaCl, 0.1% (w/v) bovine serum albumin (BSA), 100 μg/ml bacitracin. The assay was performed in duplicate. Nonspecific binding was determined as the binding in the presence of 1 μM MCH (Bachem). Binding data were analyzed and IC50 values determined by non-linear regression using the Prism software (GraphPad software, San Diego). Values of the dissociation and inhibition constants (Kd and Ki) were estimated from competition binding using the equations Kd=IC50−L and Ki=IC50/(1+L/Kd), respectively, where L is the concentration of radioligand.

human MCH-1 receptor [2] = molecular target: T1, human MCH-1 receptor; test: Phosphatidylinositol assay (IP3); format: cell-based; conditions: phosphatidylinositol turnover stimulated by 10 nM MCH; COS-7 or CHO cells expressing human MCH-1 receptor
Protocol: Transfections and Tissue Culture—The cDNA encoding the human MCH-1 receptor was cloned from a human brain cDNA library and cloned into the eukaryotic expression vector pcDNA3.1 (Invitrogen). Assays were performed on transiently transfected COS-7 cells or stably transfected CHO (Chinese Hamster Ovary) cells, expressing the human MCH-1 receptor in pcDNA3.1. […] Clones were screened by a MCH receptor radioligand binding assay (as described below).
Phosphatidylinositol assay—To assay phosphatidylinositol turnover, transiently transfected COS-7 cells or stably transfected CHO cells, expressing human MCH-1 receptor (2×10^5 cells/well) were incubated for 24 h with 5 μCi of [^3H]-myo-inositol (Amersham Pharmacia Biotech) in 0.5 ml inositol-free culture medium. Cells were washed twice in PI-buffer: 20 mM HEPES, pH 7.4, supplemented with 140 mM NaCl, 5 mM KCl, 1 mM MgSO4, 1 mM CaCl2, 10 mM glucose, 0.02% (w/v) bovine serum; and were incubated in 0.5 ml PI-buffer supplemented with 10 mM LiCl at 37° C. for 45 min. Phosphatidylinositol turnover was stimulated by submaximal concentrations of MCH, i.e. 10 nM in the presence of increasing amounts of ligand. The ligand was added 5 min. before adding the agonist (MCH). Cells were extracted with 10 mM ice-cold Formic acid, and the generated [^3H]-inositol phosphates were purified on Bio-Rad AG 1-X8 anion-exchange resin. Determinations were made in duplicate. PI data were analyzed and IC50 values determined by non-linear regression using the Prism software (GraphPad software, San Diego).

hMCHreceptor = molecular target: T2, hMCHreceptor (Homo sapiens, UniProt Q99705); test: Scintillation Proximity Assay (SPA), [125I]-MCH binding to CHO-K1 membranes; conditions: CHO-K1 membranes expressing hMCH receptor
T2 construct: purchased Euroscreen ES-370-M; host or cells: CHO-K1 membranes
Protocol: Scintillation Proximity Assay (SPA)—Measurement of [^125I]-MCHbinding was performed in duplicates by incubating membranes and beads with tracer in the presences of various concentrations of test compounds (10^−8 to 10^−4 M) in DMSO (3 μl) at room temperature for two hours. Membranes and beads were pre-incubated for 20 min. The binding buffer contained 50 mM Tris (pH 7.4), 8 mM MgCl2, 12% glycerol, 0.1% (w/v) bovine serum albumin (BSA), and protease inhibitors (Complete protease inhibitor cocktail tablets, Roche). A final [^125I]-MCH(2000 Ci/mmol; Amersham Pharmacia Biotech) concentration of 75.000 cpm/well (33.8 nCi) was applied and PEI-treated WGA-coupled PVT SPA beads, type B from Amersham Pharmacia Biotech were used at a final concentration of 0.4 mg/well. Moreover, CHO-K1 membranes expressing the hMCHreceptor were purchased from Euroscreen (ES-370-M) and a final concentration of 2 μg/well were used. Binding data were analyzed and IC50 values determined by non-linear regression using the Prism software (GraphPad software, San Diego). Values of the inhibition constant (Ki) were estimated from competition binding using the equation Ki=IC50/([…]), where L and Kd are the concentration and affinity constant, respectively, of the radioligand.

T1 sequence (Q99705 whole entry): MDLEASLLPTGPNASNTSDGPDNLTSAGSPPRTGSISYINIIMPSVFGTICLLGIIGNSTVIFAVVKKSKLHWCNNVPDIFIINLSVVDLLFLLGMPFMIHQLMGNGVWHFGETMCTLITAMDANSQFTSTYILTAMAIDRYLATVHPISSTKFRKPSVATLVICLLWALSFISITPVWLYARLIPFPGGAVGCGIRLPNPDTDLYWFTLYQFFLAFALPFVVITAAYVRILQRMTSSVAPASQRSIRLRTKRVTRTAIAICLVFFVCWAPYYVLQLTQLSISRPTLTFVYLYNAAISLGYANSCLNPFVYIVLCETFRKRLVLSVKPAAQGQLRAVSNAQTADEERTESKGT
T2 sequence (Q99705 whole entry): as above

Row | SMILES | pIC50 (human MCH-1 receptor [1]) | pIC50 (human MCH-1 receptor [2]) | pIC50 (hMCHreceptor)
1 | COc1cc(NC(=O)Nc2ccc3c(c2)CCC3)ccc1C(=O)NC1CCN(Cc2ccccc2)CC1 [Ex 137, N-(1-Benzyl-piperidin-4-yl)-4-(3-indan-5-yl-ureido)-2-methoxy-benzamide] | 6.52 | – | –
2 | COc1cc(NC(=O)Nc2cccc(Nc3ccccc3)c2)ccc1C(=O)NCCCN1CCCCC1 [Ex 89, 2-Methoxy-4-[3-(3-phenylamino-phenyl)-ureido]-N-(3-piperidin-1-yl-propyl)-benzamide] | 7.92 | 7.66 | –
3 | COc1cc(NC(=O)Nc2ccc(Oc3ccccc3)cc2)c(F)cc1C(=O)NCCCN1CCCCC1 [Ex 186, 5-Fluoro-2-methoxy-4-[3-(4-phenoxy-phenyl)-ureido]-N-(3-piperidin-1-yl-propyl)-benzamide] | 6.00 | – | –
4 | COc1cc(NC(=O)Nc2ccc(Oc3ccccc3)cc2)ccc1C(=O)NC1CCN(Cc2ccccc2)CC1 [Ex 16, N-(1-Benzyl-piperidin-4-yl)-2-methoxy-4-[3-(4-phenoxy-phenyl)-ureido]-benzamide] | 6.66 | 5.74 | –
5 | CCCCN(CCCC)CCCNC(=O)c1ccc(N(C)C(=O)Nc2ccc(Oc3ccccc3)cc2)cc1OC [Ex 134, N-(3-Dibutylamino-propyl)-2-methoxy-4-[1-methyl-3-(4-phenoxy-phenyl)-ureido]-benzamide] | 7.16 | 6.17 | –
6 | COc1cc(NC(=O)c2ccc(-c3ccccc3)cc2)ccc1C(=O)NCCN(C)C [Ex 2, Biphenyl-4-carboxylic acid[4-(2-dimethylamino-ethylcarbamoyl)-3-methoxy-phenyl]-amide] | 5.83 | – | –
7 | COc1cc(NC(=O)Nc2ccc(Oc3ccccc3)cc2)ccc1C(=O)NCCN(C)C [Ex 8, N-(2-Dimethylamino-ethyl)-2-methoxy-4-[3-(4-phenoxy-phenyl)-ureido]-benzamide] | 6.42 | 5.64 | –
8 | CCN(CC)CCNC(=O)c1ccc(NC(=O)Nc2ccc(OC(F)(F)F)cc2)cc1OC [Ex 48, N-(2-Diethylamino-ethyl)-2-methoxy-4-[3-(4-trifluoromethoxy-phenyl)-ureido]-benzamide] | 7.02 | 6.72 | –
9 | COc1cc(NC(=O)Nc2ccc(Oc3ccccn3)cc2)ccc1C(=O)NCCCN1CCOCC1 [Ex 136, 2-Methoxy-N-(3-morpholin-4-yl-propyl)-4-(3-[4-(pyridin-2-yloxy)-phenyl]-ureido)-benzamide] | 5.35 | – | –
10 | COc1cc(NC(=O)Nc2cccc(Oc3ccccc3)c2)ccc1C(=O)NCCCN1CCOCC1 [Ex 121, 2-Methoxy-N-(3-morpholin-4-yl-propyl)-4-[3-(3-phenoxy-phenyl)-ureido]-benzamide] | 7.13 | – | –
11 | CCN(CC)CCNC(=O)c1ccc(N(C)C(=O)Nc2ccc(Oc3ccccc3)cc2)cc1OC [Ex 33, N-(2-Diethylamino-ethyl)-2-methoxy-4-[1-methyl-3-(4-phenoxy-phenyl)-ureido]-benzamide] | 7.32 | 6.54 | –
12 | COc1cc(NC(=O)Nc2ccc(Nc3ccc(C(F)(F)F)cc3)cc2)ccc1C(=O)NCCCN1CCOCC1 [Ex 139, 2-Methoxy-N-(3-morpholin-4-yl-propyl)-4-{3-[4-(4-trifluoromethyl-phenylamino)-phenyl]-ureido}-benzamide] | 5.85 | – | –
13 | COc1cc(NC(=O)Nc2ccc(Oc3ccccc3)cc2)ccc1C(=O)NCCCN1CCCCC1 [Ex 95, 2-Methoxy-4-[3-(4-phenoxy-phenyl)-ureido]-N-(3-piperidin-1-yl-propyl)-benzamide] | 7.36 | 6.62 | –
14 | CCN(CC)CCNC(=O)c1ccc(NC(=O)Nc2ccc(OC(F)(F)F)cc2)cc1 [Ex 47, N-(2-Diethylamino-ethyl)-4-[3-(4-trifluoromethoxy-phenyl)-ureido]-benzamide] | 7.15 | 6.54 | –
15 | COc1cc(NC(=O)Nc2ccc(Oc3ccc(F)cc3)cc2)ccc1C(=O)NCCCN1CCOCC1 [Ex 135, 4-{3-[4-(4-Fluoro-phenoxy)-phenyl]-ureido}-2-methoxy-N-(3-morpholin-4-yl-propyl)-benzamide] | 6.35 | 5.80 | –
16 | COc1cc(NC(=O)Nc2ccc(C(F)(F)F)cc2)ccc1C(=O)NCCN1CCOCC1 [Ex 67, 2-Methoxy-N-(2-morpholin-4-yl-ethyl)-4-[3-(4-trifluoromethyl-phenyl)-ureido]-benzamide] | – | 6.66 | 7.57
17 | COc1cc(NC(=O)Nc2ccc(Oc3ccccc3)cc2)ccc1C(=O)NCCCN1CCOCC1 [Ex 23, 2-Methoxy-N-(3-morpholin-4-yl-propyl)-4-[3-(4-phenoxy-phenyl)-ureido]-benzamide] | 6.68 | 6.11 | –
